Counter-ions that a name gives are not always drawn.
Tests used:
[1] = tested on: HCT-116 cell line; assay: Inhibition of cell growth, tetrazolium salt (MTT) assay; type: cell-based; conditions: Homo sapiens, MTT; for inhibition at 0.175 µM: HCT-116, HCT-116 cells, compound at 0.175 uM; for IC50: HCT-116, 120 h, first HCT-116 column (c4), three to five days, read-out: HCT-116 IC50
Outline: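 Growth inhibition is scored relative to cells receiving only 0.5% (v/v) DMSO. Plated cells rest 4 h, then take compound for three to five days at 37° C; MTT reduction to formazan is read at 540 nm.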

[2] = target: CDK2/Cyclin A (Homo sapiens, UniProt P24941); assay: Inhibition of CDK2/Cyclin A Retinoblastoma Kinase Activity; type: biochemical; conditions: for inhibition at 0.05 µM: read-out: % inhibition of CDK2 (@ 0.05 μM), compound at 0.05 μM; for Ki: apparent Ki, CDK2/proteolyzed cyclin A, Rb fragment substrate, 25 μM ATP
Outline: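 Percent inhibition is calculated against DMSO-only wells after subtracting no-enzyme background. The enzyme is human CDK2 complexed with proteolyzed cyclin A, used at 10 nM or 19 nM on an Rb fragment with 25 μM [32/33P]ATP, at pH 7.4 and 30° C.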

Compound | inhibition at 0.175 µM [1] [%] | inhibition at 0.05 µM [2] [%] | IC50 [1] [µM] | Ki [2] [µM]
CN(CCC#N)CCCS(=O)(=O)N1CCC(Nc2nc(N)c(C(=O)c3c(F)cccc3F)s2)CC1 [Example V66] | 10 | 82 | – | –
COC(=O)[C@@H]1CCCN1CCCS(=O)(=O)N1CCC(Nc2nc(N)c(C(=O)c3c(F)cccc3F)s2)CC1 [Example V139] | 0 | 79 | – | –
Nc1nc(NC2CCN(S(=O)(=O)CCCN3CCN4CCCC4C3)CC2)sc1C(=O)c1c(F)cccc1F (stereo not drawn) [Example V152] | 0 | 78 | – | –
Nc1nc(NC2CCN(S(=O)(=O)CCCNC3CCCC3)CC2)sc1C(=O)c1c(F)cccc1F [Example V75] | 19 | 88 | – | –
CCC(COC)NCCCS(=O)(=O)N1CCC(Nc2nc(N)c(C(=O)c3c(F)cccc3F)s2)CC1 (stereo not drawn) [Example V97] | 28 | 81 | – | –
Nc1nc(NC2CCN(S(=O)(=O)CCCNCCCN3CCCC3)CC2)sc1C(=O)c1c(F)cccc1F [Example V73] | 0 | 82 | – | –
Nc1nc(NC2CCN(S(=O)(=O)CCCN3CCNC(=O)CC3)CC2)sc1C(=O)c1c(F)cccc1F [Example V156] | 0 | 82 | – | –
Nc1nc(NC2CCN(S(=O)(=O)CCCNCCc3cccs3)CC2)sc1C(=O)c1c(F)cccc1F [Example V76] | 44 | 89 | – | –
Nc1nc(NC2CCN(S(=O)(=O)CCCNCc3ccc[nH]c3=O)CC2)sc1C(=O)c1c(F)cccc1F [Example V169] | 25 | 76 | – | –
CN(CCCS(=O)(=O)N1CCC(Nc2nc(N)c(C(=O)c3c(F)cccc3F)s2)CC1)Cc1ccco1 [Example V82] | 60 | 88 | – | –
Cc1cccc(CNCCCS(=O)(=O)N2CCC(Nc3nc(N)c(C(=O)c4c(F)cccc4F)s3)CC2)c1 [Example V79] | 76 | 93 | – | –
Nc1nc(NC2CCN(S(=O)(=O)CCCNc3nnn[nH]3)CC2)sc1C(=O)c1c(F)cccc1F [Example V84] | 0 | 24 | – | –
Nc1nc(NC2CCN(S(=O)(=O)CCCNC3CCSCC3)CC2)sc1C(=O)c1c(F)cccc1F [Example V161] | 2 | 88 | – | –
COCC(C)NCCCS(=O)(=O)N1CCC(Nc2nc(N)c(C(=O)c3c(F)cccc3F)s2)CC1 (stereo not drawn) [Example V58] | 10 | 80 | – | –
Nc1nc(NC2CCN(S(=O)(=O)CCCN3CCC(CO)CC3)CC2)sc1C(=O)c1c(F)cccc1F [Example V133] | 0 | 71 | – | –
Cc1nnc(CN(C)CCCS(=O)(=O)N2CCC(Nc3nc(N)c(C(=O)c4c(F)cccc4F)s3)CC2)o1 [Example V176] | 0 | 73 | – | –
CC(C)OCCCNCCCS(=O)(=O)N1CCC(Nc2nc(N)c(C(=O)c3c(F)cccc3F)s2)CC1 [Example V96] | 10 | 84 | – | –
CN(C)CCN(C)CCCS(=O)(=O)N1CCC(Nc2nc(N)c(C(=O)c3c(F)cccc3F)s2)CC1 [Example V95] | 3 | 70 | – | –
Nc1nc(NC2CCN(S(=O)(=O)CCCNCc3cccnc3)CC2)sc1C(=O)c1c(F)cccc1F [Example V6] | 1 | 80 | – | –
CC(=O)NC1CCN(CCCS(=O)(=O)N2CCC(Nc3nc(N)c(C(=O)c4c(F)cccc4F)s3)CC2)C1 (stereo not drawn) [Example V41] | 14 | 71 | – | –
CC1CN(CCCS(=O)(=O)N2CCC(Nc3nc(N)c(C(=O)c4c(F)cccc4F)s3)CC2)CC(C)O1 (stereo not drawn) [Example V31] | 48 | 83 | – | –

Compound | inhibition at 0.175 µM [1] [%] | inhibition at 0.05 µM [2] [%] | IC50 [1] [µM] | Ki [2] [µM]
Nc1nc(NC2CCN(S(=O)(=O)CCCN3CCCCCC3)CC2)sc1C(=O)c1c(F)cccc1F [Example V69] | 54 | 81 | – | –
CN(C)CCCS(=O)(=O)N1CCC(Nc2nc(N)c(C(=O)c3c(F)cccc3F)s2)CC1 [Example V147] | 23 | 78 | – | –
CCCCN(CC#N)CCCS(=O)(=O)N1CCC(Nc2nc(N)c(C(=O)c3c(F)cccc3F)s2)CC1 [Example V119] | 0 | 75 | – | –
Nc1nc(NC2CCN(S(=O)(=O)CCCN[C@H]3CCC(=O)NC3)CC2)sc1C(=O)c1c(F)cccc1F [Example V157] | 46 | 83 | – | –
Nc1nc(NC2CCN(S(=O)(=O)CCCNCCSCCO)CC2)sc1C(=O)c1c(F)cccc1F [Example V125] | 5 | 87 | – | –
CCN(CC)CCN(C)CCCS(=O)(=O)N1CCC(Nc2nc(N)c(C(=O)c3c(F)cccc3F)s2)CC1 [Example V33] | 16 | 76 | – | –
CSCCCNCCCS(=O)(=O)N1CCC(Nc2nc(N)c(C(=O)c3c(F)cccc3F)s2)CC1 [Example V127] | 13 | 87 | – | –
C=CCNCCCS(=O)(=O)N1CCC(Nc2nc(N)c(C(=O)c3c(F)cccc3F)s2)CC1 [Example K57, {2-[1-(3-Allylamino-propane-1-sulfonyl)-piperidin-4-ylamino]-4-amino-thiazol-5-yl}-(2,6-difluoro-phenyl)-methanone. Trifluoroacetic Acid Salt] | – | – | 0.48 | 0.007
Nc1nc(NC2CCN(S(=O)(=O)CCCNCCC3CCCN3)CC2)sc1C(=O)c1c(F)cccc1F (stereo not drawn) [Example V1] | 7 | 80 | – | –
NC(=O)CNCCCS(=O)(=O)N1CCC(Nc2nc(N)c(C(=O)c3c(F)cccc3F)s2)CC1 [Example V17] | 0 | 78 | – | –
CCSCCNCCCS(=O)(=O)N1CCC(Nc2nc(N)c(C(=O)c3c(F)cccc3F)s2)CC1 [Example V129] | 49 | 88 | – | –
Nc1nc(NC2CCN(S(=O)(=O)CCCN3CCSC3)CC2)sc1C(=O)c1c(F)cccc1F [Example V101] | 22 | 80 | – | –
Cc1ccccc1CNCCCS(=O)(=O)N1CCC(Nc2nc(N)c(C(=O)c3c(F)cccc3F)s2)CC1 [Example V184, (4-Amino-2-{[1-({3-[(2-methylbenzyl)amino]propyl}sulfonyl)-4-piperidinyl]amino}-1,3-thiazol-5-yl)(2,6-difluorophenyl)methanone.] | – | – | 0.06 | 0.0036
Cc1ccccc1CNCCCS(=O)(=O)N1CCC(Nc2nc(N)c(C(=O)c3c(F)cccc3F)s2)CC1 [Example V27] | 86 | 93 | – | –
Nc1nc(NC2CCN(S(=O)(=O)CCCNC3CCCCC3)CC2)sc1C(=O)c1c(F)cccc1F [Example V72] | 14 | 90 | – | –
C=CCN1CCN(CCCS(=O)(=O)N2CCC(Nc3nc(N)c(C(=O)c4c(F)cccc4F)s3)CC2)CC1 [Example V74] | 44 | 82 | – | –
CN(CCCS(=O)(=O)N1CCC(Nc2nc(N)c(C(=O)c3c(F)cccc3F)s2)CC1)Cc1ccccc1 [Example V181, (4-Amino-2-{[1-({3-[benzyl(methyl)amino]propyl}sulfonyl)-4-piperidinyl]amino}-1,3-thiazol-5-yl)(2,6-difluorophenyl)methanone.] | – | – | 0.06 | 0.0065
Nc1nc(NC2CCN(S(=O)(=O)CCCNC3CCCCCC3)CC2)sc1C(=O)c1c(F)cccc1F [Example V159] | 8 | 88 | – | –
CCc1cccc(NCCCS(=O)(=O)N2CCC(Nc3nc(N)c(C(=O)c4c(F)cccc4F)s3)CC2)n1 [Example V113] | 19 | 79 | – | –
CC(C)OCCNCCCS(=O)(=O)N1CCC(Nc2nc(N)c(C(=O)c3c(F)cccc3F)s2)CC1 [Example V131] | 5 | 82 | – | –
CCc1ccc(C)cc1NCCCS(=O)(=O)N1CCC(Nc2nc(N)c(C(=O)c3c(F)cccc3F)s2)CC1 [Example V112] | 57 | 88 | – | –

Reference: patent US20050101595A1, “N-containing cycloalkyl-substituted amino-thiazole derivatives and pharmaceutical compositions for inhibiting cell proliferation and methods for their use” (PFIZER INC., priority 2003, published 2005)
